Results taken from the RepoRT retention time repository (doi:10.1021/acs.analchem.1c00972).

Assay: RP, Waters ACQUITY UPLC BEH C18, 100 × 1 mm, 1.7 µm, 50 °C, 0.3 mL/min, estimated dead time 0.17 min; A: water + 0.1% formic acid + 20 mM ammonium formate; B: methanol + 0.1% formic acid + 20 mM ammonium formate; gradient (min/%B) 0/0 15/100 21/100 22/0 30/0
Conditions: stereoisomer not certain

| LC retention time | Structure (SMILES) |
| --- | --- |
| 9.8 min | CC(C)c1ccc(N)cc1 [4-Isopropylaniline] |
| 14.3 min | Cc1ccc(O)cc1 [4-Methylphenol] |
| 2.5 min | CC(=O)c1ccc(N)cc1 [4-aminoacetophenone] |
| 11.2 min | Cc1cc2n[nH]nc2cc1C [5,6-Dimethyl-1,1,1-benzotriazol] |
| 12.1 min | O=c1cc(-c2ccccc2)c2c(O)cc(O)cc2o1 [5,7-Dihydroxy-4-phenylcoumarin] |
| 3.69 min | Cc1ccc(N)cc1O [5-Amino-o-cresol] |
| 6.7 min | O=C(O)Cc1c[nH]c2ccc(O)cc12 [5-Hydroxyindole-3-acetic acid] |
| 9.89 min | Cc1ccc2n[nH]nc2c1 [5-Methyl-1-H-benzotriazol] |
| 15.2 min | CC(=O)C1CCC2C3CC=C4CC(O)CCC4(C)C3CCC12C (stereo not drawn) [5-Pregnen-3.beta.-ol-20-one] |
| 14.5 min | CC(C)=CCc1c(O)cc(O)c2c1OC(c1ccc(O)cc1)CC2=O (configuration not stated) [8-Prenylnaringenin] |
| 16 min | CC(C=CC1=C(C)CCCC1(C)C)=CC=CC(C)=CC(=O)O [9-cis-Retinoic acid] |
| 15.9 min | CCCC(=O)Nc1ccc(OCC(O)CNC(C)C)c(C(C)=O)c1 (configuration not stated) [Acebutolol] |
| 11.9 min | CCOCN(C(=O)CS(=O)(=O)O)c1c(C)cccc1CC [Acetochlor ESA] |
| 15.5 min | CCOCN(C(=O)C(=O)O)c1c(C)cccc1CC [Acetochlor OA] |
| 16.5 min | CC(=O)Oc1ccccc1C(=O)O [Acetylsalicyls<e4>ure] |
| 11.8 min | CCc1cccc(CC)c1N(COC)C(=O)CS(=O)(=O)O [Alachlor tert-sulfonic acid (ESA)] |
| 6 min | CC(C)(C)NCC(O)c1ccc(O)c(CO)c1 (configuration not stated) [Albuterol] |
| 13.6 min | COCCCOc1cc(CC(CC(N)C(O)CC(C(=O)NCC(C)(C)C(N)=O)C(C)C)C(C)C)ccc1OC (configuration not stated) [Aliskiren] |
| 10.3 min | O=c1cc(-c2ccc(O)cc2)oc2cc(OC3OC(CO)C(O)C(O)C3OC3OCC(O)(CO)C3O)cc(O)c12 (configuration not stated) [Apiin] |
| 4.31 min | CC(C)Nc1nc(N)[nH]c(=O)n1 [Atrazin-desethyl-2-hydroxy] |
| 8.9 min | N#Cc1ccccc1Oc1cc(=O)[nH]cn1 [Azoxystrobin-metabolite] |
| 14.5 min | CC(C)OC(=O)NC(C(=O)NC(C)c1nc2ccc(F)cc2s1)C(C)C (configuration not stated) [Benthiavalicarb-Isopropyl] |
| 7.87 min | Nc1nc(N)nc(-c2ccccc2)n1 [Benzoguanamine] |
| 9.32 min | O=C(O)c1ccc2ncsc2c1 [Benzothiazole-6-carbons<e4>ure] |
| 10.8 min | c1ccc2scnc2c1 [Benzothiazole] |
| 14.1 min | CC(=O)OCC(=O)C1(O)C(C)CC2C3CCC4=CC(=O)C=CC4(C)C3(F)C(O)CC21C (configuration not stated) [Betamethasone-21-acetate] |
| 13.3 min | CCOCCOC(=O)c1ccccc1C(=O)OCCOCC [Bis(2-ethoxyethyl)phthalate] |

| LC retention time | Structure (SMILES) |
| --- | --- |
| 18.2 min | CC(C)CC(C)OC(=O)c1ccccc1C(=O)OC(C)CC(C)C (configuration not stated) [Bis(4-methyl-2-pentanyl)phthalate] |
| 15.4 min | Cn1cc(C(=O)Nc2ccc(F)cc2-c2ccc(Cl)c(Cl)c2)c(C(F)F)n1 [Bixafen] |
| 12.6 min | CCCCOc1ccc(CC(=O)NO)cc1 [Bufexamac] |
| 10.6 min | CCCCN1CCCCC1C(=O)Nc1c(C)cccc1C (configuration not stated) [Bupivacaine] |
| 14.5 min | CCCCOCN(C(=O)CS(=O)(=O)O)c1c(CC)cccc1CC [Butachlor ESA] |
| 13.6 min | NS(=O)(=O)c1ccc(-n2nc(C(F)(F)F)cc2-c2ccc(C(=O)O)cc2)cc1 [Celecoxib Carboxylic Acid] |
| 9.97 min | CCN(CC)C(=O)Nc1ccc(OCC(O)CNC(C)(C)C)c(C(C)=O)c1 (configuration not stated) [Celiprolol] |
| 17.1 min | CC(CCC(=O)O)C1CCC2C3C(O)CC4CC(O)CCC4(C)C3CCC12C (configuration not stated) [Chenodeoxycholic acid] |
| 2.02 min | O=C(O)Cc1c(Cl)ccc(Cl)c1Cl [Chlorfenac] |
| 4.7 min | NS(=O)(=O)c1cc2c(cc1Cl)NC=NS2(=O)=O [Chlorthiazide] |
| 21.4 min | CC(C)CCCC(C)C1CCC2C3CC=C4CC(O)CCC4(C)C3CCC12C (configuration not stated) [Cholesterol] |
| 16.1 min | CC(CCC(=O)O)C1CCC2C3C(O)CC4CC(O)CCC4(C)C3CC(O)C12C (configuration not stated) [Cholic acid] |
| 14.9 min | Cc1cc(C2CCCCC2)n(O)c(=O)c1 [Ciclopirox] |
| 4.9 min | NC1CCCCC1 [Cyclohexylamine] |
| 17 min | CCCCCCCCn1sc(Cl)c(Cl)c1=O [DCOIT] |
| 8.4 min | O=C(O)C1OC(Oc2ccc3c(=O)c(-c4ccc(O)cc4)coc3c2)C(O)C(O)C1O (configuration not stated) [Daidzein_glucuronide] |
| 14.5 min | CCCCCCCCCC(=O)OC(CC(=O)[O-])C[N+](C)(C)C [Decanoyl-L-Carnitine] |
| 17.1 min | CC(CCC(=O)O)C1CCC2C3CCC4CC(O)CCC4(C)C3CC(O)C12C (configuration not stated) [Deoxycholic acid] |
| 14 min | CCNC(=O)C(C)Oc1cccc2ccccc12 (configuration not stated) [Desethyl-napropamide] |
| 13 min | CCCCOc1cc(C(=O)NCCN(CC)CC)c2ccccc2n1 [Dibucaine] |
| 17 min | Cc1cc(C(C)(C)C)c(O)c(C(C)(C)C)c1 [Dibutylhydroxytoluene] |
| 14 min | O=C(NC1CCCCC1)NC1CCCCC1 [Dicyclohexylurea] |
| 12.6 min | CC12CCC3=C4CCC(=O)C=C4CCC3C1CCC2(O)CC#N (configuration not stated) [Dienogest] |
| 7.48 min | CCOc1ccc(NC(=O)OC(C)C)cc1OCC [Diethofencarb] |
| 13.2 min | O=C(O)c1cccnc1Oc1cccc(C(F)(F)F)c1 [Diflufenican-metabolite] |
| 7.31 min | COCCOCCOC [Diglyme] |

| Structure (SMILES) | LC retention time |
| --- | --- |
| O=c1cc(O)c2ccccc2o1 [4-Hydroxycoumarin] | 10.7 min |
| CCCCCCCCc1ccc(O)cc1 [4-n-Octylphenol] | 16.9 min |
| CC(=NC#N)N(C)Cc1ccc(Cl)nc1 [Acetamiprid] | 9.33 min |
| N#CCCCCC#N [Adiponitrile] | 5.21 min |
| C=C1C(O)C2(O)OCC34C(CC5C(C)=CC(=O)C(O)C5(C)C23)OC(=O)CC14 (configuration not stated) [Ailanthone] | 7.89 min |
| Cc1ccc(N=CN(C)C=Nc2ccc(C)cc2C)c(C)c1 [Amitraz] | 17.7 min |
| CC1CC(O)C2(O)C13CC(OC(=O)C3O)C(C)(O)C21COC1=O (configuration not stated) [Anisatin] | 7.91 min |
| CCC(C)C1OC2(C=CC1C)CC1CC(CC=C(C)C(OC3CC(OC)C(OC4CC(OC)C(O)C(C)O4)C(C)O3)C(C)C=CC=C3COC4C(O)C(C)=CC(C(=O)O1)C34O)O2 (configuration not stated) [Avermectin B1a (Abamectin)] | 18.1 min |
| CC(=O)OC1C(=O)C2(C)C(O)CC3OCC3(OC(C)=O)C2C(OC(=O)c2ccccc2)C2(O)CC(O)C(C)=C1C2(C)C (configuration not stated) [Baccatin III] | 12.5 min |
| COCCOC(=O)c1ccccc1C(=O)OCCOC [Bis(2-methoxyethyl)phthalate] | 12.3 min |
| Oc1ccc(C(=C(Cl)Cl)c2ccc(O)cc2)cc1 [Bisphenol C-dichloride] | 10.5 min |
| CC(c1ccc(O)cc1)c1ccc(O)cc1 [Bisphenol E] | 11.5 min |
| Oc1ccc(C2(c3ccc(O)cc3)CCCCC2)cc1 [Bisphenol Z] | 16 min |
| CCC(C)n1c(=O)[nH]c(C)c(Br)c1=O (configuration not stated) [Bromacil] | 11.5 min |
| CCC1(O)C(=O)OCc2c1cc1n(c2=O)Cc2cc3ccccc3nc2-1 (configuration not stated) [Camptothecin] | 12 min |
| CC1=C(C(=O)Nc2ccccc2)SCCO1 [Carboxin] | 11.9 min |
| Cc1cc(Cl)ccc1N=CN(C)C [Chlordimeform] | 8.37 min |

| Structure (SMILES) | LC retention time |
| --- | --- |
| CC(C)OC(=O)Nc1cccc(Cl)c1 [Chlorpropham] | 14.4 min |
| COP(=O)(OC)Oc1nc(Cl)c(Cl)cc1Cl [Chlorpyrifos-methyl-oxon] | 13.7 min |
| CCOP(=O)(OCC)Oc1nc(Cl)c(Cl)cc1Cl [Chlorpyrifos-oxon] | 15.2 min |
| CCOP(=S)(OCC)Oc1nc(Cl)c(Cl)cc1Cl [Chlorpyriphos-ethyl] | 17.1 min |
| CC1OC(OC2CCC3(C=O)C4CCC5(C)C(C6=CC(=O)OC6)CCC5(O)C4CCC3(O)C2)C(O)C(O)C1O (configuration not stated) [Convallatoxin] | 11.2 min |
| CCNc1nc(Cl)nc(NC(C)(C)C#N)n1 [Cyanazin] | 11.3 min |
| O=P1(N(CCCl)CCCl)NCCCO1 (configuration not stated) [Cyclophosphamide] | 10.7 min |
| CCNC(=O)NC(=O)C(C#N)=NOC [Cymoxanil] | 9.68 min |
| CCS(=O)(=O)CCSP(=O)(OC)OC [Demeton-S-methyl-sulfone] | 7.78 min |
| CCSCCSP(=O)(OC)OC [Demeton-S-methyl] | 11.8 min |
| CCOP(=O)(OCC)Oc1cc(C)nc(C(C)C)n1 [Diazoxon / Diazinon-oxon] | 15.7 min |
| CC(Oc1ccc(Oc2ccc(Cl)cc2Cl)cc1)C(=O)O (configuration not stated) [Diclofop] | 14.3 min |
| CCCCCCCCCCCCOC(=O)c1ccccc1C(=O)OCCCCCCCCCCCC [Didodecylphthalate] | 21.7 min |
| CCOP(=O)(O)OCC [Diethyl phopshate] | 16.3 min |
| COCCOCCO [Diethyleneglycolmonomethylether] | 5.03 min |
| CCCCCCOC(=O)c1ccccc1C(=O)OCCCCCC [Dihexylphthalate] | 18.2 min |
| COc1ccc2c3c1OC1C(O)CCC4C(C2)N(C)CCC341 (configuration not stated) [Dihydrocodein] | 6.74 min |
